In patent publication US12492186B2, “Bicyclic heterocyclic compounds useful as IRAK4 inhibitors” (BRISTOL-MYERS SQUIBB COMPANY, priority 2019, dated 2025) one finds IC50 data, which are given here for 33 molecules.

The experiment deals with IRAK4 (Homo sapiens (Human), UniProt Q9NWZ3). In words: IRAK4 Inhibition Assay. The format is biochemical. The conditions noted are these: ATP 500 μM; IRAK4 0.6 nM; 60 min room temperature; Caliper LABCHIP 3000. The method, then:
The assays were performed in U-bottom 384-well plates. The final assay volume was 30 μL prepared from 15 μL additions of enzyme and substrates (fluoresceinated peptide and ATP) and test compounds in assay buffer (20 mM HEPES pH 7.2, 10 mM MgCl2, 0.015% Brij 35 and 4 mM DTT). The reaction was initiated by the combination of IRAK4 with substrates and test compounds. The reaction mixture was incubated at room temperature for 60 min. and terminated by adding 45 μL of 35 mM EDTA to each sample. The reaction mixture was analyzed on the Caliper LABCHIP® 3000 (Caliper, Hopkinton, MA) by electrophoretic separation of the fluorescent substrate and phosphorylated product. Inhibition data were calculated by comparison to no enzyme control reactions for 100% inhibition and vehicle-only reactions for 0% inhibition. The final concentrations of reagents in the assays are ATP, 500 μM; FL-IPTSPITTTYFFFKKK peptide 1.5 μM; IRAK4, 0.6 nM; and DMSO, 1.6%.

In general, IC50 refers to the concentration needed to halve the response being measured.

IRAK4, sequence (Q9NWZ3 whole entry, species assumed): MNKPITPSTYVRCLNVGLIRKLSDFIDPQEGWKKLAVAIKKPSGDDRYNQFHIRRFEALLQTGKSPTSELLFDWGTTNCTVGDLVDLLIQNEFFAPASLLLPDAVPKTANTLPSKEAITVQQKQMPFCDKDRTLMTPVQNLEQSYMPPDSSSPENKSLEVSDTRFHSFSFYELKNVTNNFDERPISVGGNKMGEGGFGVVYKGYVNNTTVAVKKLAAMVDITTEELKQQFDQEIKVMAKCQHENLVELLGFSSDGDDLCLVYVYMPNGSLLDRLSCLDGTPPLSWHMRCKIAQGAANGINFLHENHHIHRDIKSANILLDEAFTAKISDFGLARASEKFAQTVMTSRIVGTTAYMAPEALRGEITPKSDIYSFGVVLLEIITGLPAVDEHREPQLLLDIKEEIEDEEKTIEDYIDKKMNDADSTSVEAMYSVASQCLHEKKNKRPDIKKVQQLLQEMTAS

As to `CC(C)Nc1c(C(=O)NCCC(C)(C)O)cnc2ccc(-c3ccc(C#N)nc3)cc12` [Example 69, 6-(6-cyanopyridin-3-yl)-N-(3-hydroxy-3-methylbutyl)-4-(isopropylamino)quinoline-3-carboxamide], the IC50 came to 131 nM.
On to `CC(C)Nc1c(C(=O)NCC(C)(C)CO)cnc2ccc(-c3cn[nH]c3)cc12` [Example 19, N-(3-hydroxy-2,2-dimethylpropyl)-4-(isopropylamino)-6-(1H-pyrazol-4-yl)quinoline-3-carboxamide], for which the IC50 amounted to 94.8 nM.
Next, `CNc1c(C(N)=O)cnc2ccc(-c3cncs3)cc12` [Example 111, 4-(methylamino)-6-(thiazol-5-yl)quinoline-3-carboxamide]: 1550 nM.
Next, `CC(C)(O)[C@H](F)CNC(=O)c1cnc2ccc(-c3cncs3)cc2c1Nc1cnn(CC(F)F)c1` [Example 31, (R)-4-((1-(2,2-difluoroethyl)-1H-pyrazol-4-yl)amino)-N-(2-fluoro-3-hydroxy-3-methylbutyl)-6-(thiazol-5-yl)quinoline-3-carboxamide]: 430 nM.
In the case of `CC(C)(O)CCNC(=O)c1cnc2ccc(-c3cn[nH]c3)cc2c1NC1CC(F)(F)C1` [Example 52, 4-((3,3-difluorocyclobutyl)amino)-N-(3-hydroxy-3-methylbutyl)-6-(1H-pyrazol-4-yl)quinoline-3-carboxamide] it was 23.9 nM; in that of `CCNc1c(C(=O)NCCC(C)(C)O)cnc2ccc(-c3cn[nH]c3)cc12` [Example 38, 4-(ethylamino)-N-(3-hydroxy-3-methylbutyl)-6-(1H-pyrazol-4-yl)quinoline-3-carboxamide], 49.2 nM; in that of `CC(C)Nc1c(C(=O)NC2CCOCC2)cnc2ccc(-c3cn[nH]c3)cc12` [Example 9, 4-(isopropylamino)-6-(1H-pyrazol-4-yl)-N-(tetrahydro-2H-pyran-4-yl)quinoline-3-carboxamide], 23.3 nM.
Take `CC(C)Nc1c(C(=O)NC[C@@H](F)C(C)(C)O)cnc2ncc(-c3cn[nH]c3)cc12` [Example 161, (R)—N-(2-fluoro-3-hydroxy-3-methylbutyl)-4-(isopropylamino)-6-(1H-pyrazol-4-yl)-1,8-naphthyridine-3-carboxamide]: the IC50 came out at 1210 nM.
Next, `Cc1cc(CNC(=O)c2cnc3ccc(-c4cn[nH]c4)cc3c2NC(C)C)on1` [Example 16, 4-(isopropylamino)-N-((3-methylisoxazol-5-yl)methyl)-6-(1H-pyrazol-4-yl)quinoline-3-carboxamide]: 40.2 nM.
As to `CC(C)Nc1c(C(=O)N[C@H](C)CCO)cnc2ccc(-c3cn[nH]c3)cc12` [Example 13, (R)—N-(4-hydroxybutan-2-yl)-4-(isopropylamino)-6-(1H-pyrazol-4-yl)quinoline-3-carboxamide], the IC50 came out at 88.3 nM.
In the case of `CC(C)Nc1c(C(=O)NCCC(C)(C)O)cnc2ccc(-c3ccc(=O)[nH]c3)cc12` [Example 74, N-(3-hydroxy-3-methylbutyl)-4-(isopropylamino)-6-(6-oxo-1,6-dihydropyridin-3-yl)quinoline-3-carboxamide] it was 124 nM; in that of `CC(C)Nc1c(C(=O)NC[C@@H](F)C(C)(C)O)cnc2ccc(-c3cccnc3)cc12` [Example 3, (R)—N-(2-fluoro-3-hydroxy-3-methylbutyl)-4-(isopropylamino)-6-(pyridin-3-yl) quinoline-3-carboxamide], 46.2 nM; in that of `CC(C)Nc1c(C(=O)NC[C@@H](F)C(C)(C)O)cnc2ccc(-c3cncnc3)cc12` [Example 5, (R)—N-(2-fluoro-3-hydroxy-3-methylbutyl)-4-(isopropylamino)-6-(pyrimidin-5-yl)quinoline-3-carboxamide], 31.7 nM.
In the case of `CC(C)Nc1c(C(=O)NCCC(C)(C)O)cnc2ccc(-c3ccncc3)nc12` [Example 145, N-(3-hydroxy-3-methylbutyl)-4-(isopropylamino)-6-(pyridin-4-yl)-1,5-naphthyridine-3-carboxamide] it was 24.2 nM; in that of `CNC(=O)CCNC(=O)c1cnc2ccc(-c3cn[nH]c3)cc2c1NC(C)C` [Example 48, 4-(isopropylamino)-N-(3-(methylamino)-3-oxopropyl)-6-(1H-pyrazol-4-yl)quinoline-3-carboxamide], 30.7 nM; in that of `CC(C)Nc1c(C(=O)NCC2(CO)CC2)cnc2ccc(-c3cn[nH]c3)cc12` [Example 21, N-((1-(hydroxymethyl)cyclopropyl)methyl)-4-(isopropylamino)-6-(1H-pyrazol-4-yl)quinoline-3-carboxamide], 114 nM.
Next, `CC(C)Nc1c(C(=O)N[C@H]2C[C@@H](O)C2)cnc2ccc(-c3cn[nH]c3)cc12` [Example 39, N-((1s,3s)-3-hydroxycyclobutyl)-4-(isopropylamino)-6-(1H-pyrazol-4-yl)quinoline-3-carboxamide]: 38.6 nM.
Take `CNc1c(C(N)=O)cnc2ccc(-c3cn[nH]c3)cc12` [Example 108, 4-(methylamino)-6-(1H-pyrazol-4-yl)quinoline-3-carboxamide]: the IC50 was determined as 554 nM.
In the case of `O=C(NCCC1CC1)c1cnc2ccc(-c3cn[nH]c3)cc2c1NC1CC(F)(F)C1` [Example 56, N-(2-cyclopropylethyl)-4-((3,3-difluorocyclobutyl)amino)-6-(1H-pyrazol-4-yl)quinoline-3-carboxamide] it was 19.7 nM.
In the case of `CCNc1c(C(=O)NCCC(C)(C)O)cnc2ccc(-c3cncs3)cc12` [Example 37, 4-(ethylamino)-N-(3-hydroxy-3-methylbutyl)-6-(thiazol-5-yl)quinoline-3-carboxamide] it was 110 nM; in that of `CC(C)Nc1c(C(=O)NCC2(C)NC(=O)NC2=O)cnc2ccc(-c3cn[nH]c3)cc12` (stereo not drawn) [Example 105, 4-(isopropylamino)-N-((4-methyl-2,5-dioxoimidazolidin-4-yl)methyl)-6-(1H-pyrazol-4-yl)quinoline-3-carboxamide], 338 nM; in that of `CC(O)CCNC(=O)c1cnc2ccc(-c3cn[nH]c3)cc2c1NCC(F)F` (stereo not drawn) [Example 64, 4-((2,2-difluoroethyl)amino)-N-(3-hydroxybutyl)-6-(1H-pyrazol-4-yl)quinoline-3-carboxamide], 28 nM.
On to `CC(C)Nc1c(C(=O)NCCC2CCCN2C(=O)C2CC2)cnc2ccc(-c3cn[nH]c3)cc12` (stereo not drawn) [Example 93, N-(2-(1-(cyclopropanecarbonyl)pyrrolidin-2-yl)ethyl)-4-(isopropylamino)-6-(1H-pyrazol-4-yl)quinoline-3-carboxamide], for which the IC50 is 29.3 nM.
Next, `CC(C)Nc1c(C(=O)NCCC(C)(C)O)cnc2ccc(-c3ccc(F)nc3)cc12` [Example 70, 6-(6-fluoropyridin-3-yl)-N-(3-hydroxy-3-methylbutyl)-4-(isopropylamino)quinoline-3-carboxamide]: 119 nM; `CC(C)Nc1c(C(=O)NCCc2nnn[nH]2)cnc2ccc(-c3cn[nH]c3)cc12` [Example 110, N-(2-(1H-tetrazol-5-yl)ethyl)-4-(isopropylamino)-6-(1H-pyrazol-4-yl)quinoline-3-carboxamide]: 212 nM; `CC(C)(O)[C@H](F)CNC(=O)c1cnc2ccc(-c3cn[nH]c3)cc2c1Nc1cnn(CC(F)F)c1` [Example 33, (R)-4-((1-(2,2-difluoroethyl)-1H-pyrazol-4-yl)amino)-N-(2-fluoro-3-hydroxy-3-methylbutyl)-6-(1H-pyrazol-4-yl)quinoline-3-carboxamide]: 157 nM.
Regarding `O=C(NCCC(F)(F)F)c1cnc2ccc(-c3cn[nH]c3)cc2c1NCC(F)F` [Example 68, 4-((2,2-difluoroethyl)amino)-6-(1H-pyrazol-4-yl)-N-(3,3,3-trifluoropropyl)quinoline-3-carboxamide], the IC50 amounted to 35.1 nM.
As for `CC(C)Nc1c(C(=O)NC[C@@H](F)C(C)(C)O)cnc2ccc(-c3cncc(C#N)c3)cc12` [Example 4, (R)-6-(5-cyanopyridin-3-yl)-N-(2-fluoro-3-hydroxy-3-methylbutyl)-4-(isopropylamino)quinoline-3-carboxamide], the IC50 was determined as 296 nM.
Next, `CC(C)Nc1c(C(=O)NCCC(C)(C)O)cnc2ccc(-c3ccc(F)nc3F)cc12` [Example 73, 6-(2,6-difluoropyridin-3-yl)-N-(3-hydroxy-3-methylbutyl)-4-(isopropylamino)quinoline-3-carboxamide]: 51.2 nM; `CC(C)Nc1c(C(=O)NCCc2ncno2)cnc2ccc(-c3cn[nH]c3)cc12` [Example 106, N-(2-(1,2,4-oxadiazol-5-yl)ethyl)-4-(isopropylamino)-6-(1H-pyrazol-4-yl)quinoline-3-carboxamide]: 118 nM; `CC(C)(O)CCNc1c(C(N)=O)cnc2ccc(-c3cn[nH]c3)cc12` [Example 99, 4-((3-hydroxy-3-methylbutyl)amino)-6-(1H-pyrazol-4-yl)quinoline-3-carboxamide]: 264 nM.
Next, `COCCNC(=O)c1cnc2ccc(-c3cn[nH]c3)cc2c1NC(C)C` [Example 18, 4-(isopropylamino)-N-(2-methoxyethyl)-6-(1H-pyrazol-4-yl)quinoline-3-carboxamide]: 28 nM; `CC(C)(O)CCNC(=O)c1cnc2ccc(-c3cn[nH]c3)cc2c1NCC(F)F` [Example 62, 4-((2,2-difluoroethyl)amino)-N-(3-hydroxy-3-methylbutyl)-6-(1H-pyrazol-4-yl)quinoline-3-carboxamide]: 22.3 nM.
